Reference: US20250388605A1, “HETEROBIFUNCTIONAL COMPOUNDS AND METHODS OF TREATING DISEASE” (Halda Therapeutics OpCo, Inc., priority 2022, published 2025)

Columns and labels:
[1] = tested on: T-Rex 293 cell line SC3 cells lacking increased expression of androgen receptor protein; assay: Cellular growth inhibition, T-Rex 293 SC3 cells without doxycycline (no increased androgen receptor expression), CellTiter-Glo; format: cell-based; conditions: T-Rex 293 SC3 cells not exposed to doxycycline (no increased androgen receptor expression), 72 hours
In short: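 Growth inhibition is measured in an inducible AR-expressing T-Rex 293 clone, SC3, cultured with or without 10 ng/mL doxycycline in hormone-depleted medium. Test compounds are applied for 72 hours. GI50 values derive from CellTiter-Glo 2.0 signal fitted by four-parameter regression.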

[2] = tested on: T-Rex 293 cell line SC cells having increased expression of progesterone receptor isoform B protein; assay: Cellular growth inhibition assay, T-Rex 293 SC cells exposed to doxycycline (increased progesterone receptor isoform B expression), CellTiter-Glo; format: cell-based; conditions: T-Rex 293 SC cells with 10 ng/mL doxycycline (increased PR isoform B), 72 hours

Row | Compound | GI50 [1] [nM] | GI50 [2] [nM]
1 | CCS(=O)(=O)Nc1ccc(Oc2cccc(OCCN(C)c3ncc(C(=O)N[C@H]4C(C)(C)[C@H](Oc5ccc(C#N)c(Cl)c5)C4(C)C)cn3)c2)c(-c2cn(C)c(=O)c3[nH]ccc23)c1 [Compound I-1, N-((1r, 3r)-3-(3-chloro-4-cyanophenoxy)-2,2,4,4-tetramethylcyclobutyl)-2-((2-(3-(4-(ethylsulfonamido)-2-(6-methyl-7-oxo-6,7-dihydro-1H-pyrrolo[2,3-c]pyridin-4-yl)phenoxy)phenoxy)ethyl)(methyl)amino)pyrimidine-5-carboxamide] | 500 to 1500 | < 500
2 | CCS(=O)(=O)Nc1ccc(Oc2ccc(OCC3CCN(c4ncc(C(=O)N[C@H]5C(C)(C)[C@H](Oc6ccc(C#N)c(Cl)c6)C5(C)C)cn4)CC3)cc2)c(-c2cn(C)c(=O)c3[nH]ccc23)c1 [Compound I-138] | < 500 | < 500
3 | Cn1cc(-c2cc(C(C)(C)O)ccc2Oc2cccc(N3CC(OC4CCN(c5ncc(C(=O)N[C@H]6C(C)(C)[C@H](Oc7ccc(C#N)c(Cl)c7)C6(C)C)cn5)CC4)C3)c2F)c2cc[nH]c2c1=O [Compound I-190] | 500 to 1500 | < 500
4 | CCS(=O)(=O)Nc1ccc(Oc2cccc(OCCOC3CCN(c4cnc(C(=O)N[C@H]5C(C)(C)[C@H](Oc6ccc(C#N)c(Cl)c6)C5(C)C)cn4)CC3)c2)c(-c2cn(C)c(=O)c3[nH]ccc23)c1 [Compound I-71, N-((1r, 3r)-3-(3-chloro-4-cyanophenoxy)-2,2,4,4-tetramethylcyclobutyl)-5-(4-(2-(3-(4-(ethylsulfonamido)-2-(6-methyl-7-oxo-6,7-dihydro-1H-pyrrolo[2,3-c]pyridin-4-yl)phenoxy)phenoxy)ethoxy)piperidin-1-yl)pyrazine-2-carboxamide] | < 500 | < 500
5 | Cn1cc(-c2cc(C(C)(C)O)ccc2Oc2ccc(CCC3CCN(c4ncc(C(=O)N[C@H]5C(C)(C)[C@H](Oc6ccc(C#N)c(Cl)c6)C5(C)C)cn4)CC3)cc2)c2cc[nH]c2c1=O [Compound I-203] | > 3000 | < 500
6 | CN(CC1CCN(c2ncc(C(=O)N[C@H]3C(C)(C)[C@H](Oc4ccc(C#N)c(Cl)c4)C3(C)C)cn2)CC1)C1(c2ccc(Oc3ccc(C(C)(C)O)cc3-c3cn(C)c(=O)c4[nH]ccc34)cc2)COC1 [Compound I-255] | 500 to 1500 | < 500
7 | CC(C)N(C1CCN(c2ncc(C(=O)N[C@H]3C(C)(C)[C@H](Oc4ccc(C#N)c(Cl)c4)C3(C)C)cn2)CC1)C1CN(c2cccc(Oc3ccc(C(C)(C)O)cc3-c3cn(C)c(=O)c4[nH]ccc34)c2F)C1 [Compound I-221] | > 3000 | < 500
8 | CCS(=O)(=O)c1ccc(Oc2ccc(OCC3CCN(c4ncc5c(n4)CN([C@H]4C(C)(C)[C@H](Cc6ccc(C#N)c(Cl)c6)C4(C)C)C5=O)CC3)cc2)c(-c2cn(C)c(=O)c3[nH]ccc23)c1 [Compound I-220] | < 500 | < 500
9 | CCS(=O)(=O)Nc1ccc(Oc2cccc(N3CC4(CN(CC5CCN(c6ncc(C(=O)N[C@H]7C(C)(C)[C@H](Oc8ccc(C#N)c(Cl)c8)C7(C)C)cn6)CC5)C4)C3)c2)c(-c2cn(C)c(=O)c3[nH]ccc23)c1 [Compound I-35, N-((1r, 3r)-3-(3-chloro-4-cyanophenoxy)-2,2,4,4-tetramethylcyclobutyl)-2-(4-((6-(3-(4-(ethylsulfonamido)-2-(6-methyl-7-oxo-6,7-dihydro-1H-pyrrolo[2,3-c]pyridin-4-yl)phenoxy)phenyl)-2,6-diazaspiro[3.3]heptan-2-yl)methyl)piperidin-1-yl)pyrimidine-5-carboxamide] | 1500 to 3000 | < 500
10 | Cn1cc(-c2cc(C(C)(C)O)ccc2Oc2cccc(N3CC(N4CCN(c5ncc(C(=O)N[C@H]6C(C)(C)[C@H](Oc7ccc(C#N)c(Cl)c7)C6(C)C)cn5)CC4)C3)c2F)c2cc[nH]c2c1=O [Compound I-92, N-((1r, 3r)-3-(3-chloro-4-cyanophenoxy)-2,2,4,4-tetramethylcyclobutyl)-2-(4-(1-(2-fluoro-3-(4-(2-hydroxypropan-2-yl)-2-(6-methyl-7-oxo-6,7-dihydro-1H-pyrrolo[2,3-c]pyridin-4-yl)phenoxy)phenyl)azetidin-3-yl)piperazin-1-yl)pyrimidine-5-carboxamide] | < 500 | < 500
11 | CCS(=O)(=O)Nc1ccc(Oc2cccc(OC3CCC4(CC3)CCN(c3ncc(C(=O)N[C@H]5C(C)(C)[C@H](Oc6ccc(C#N)c(Cl)c6)C5(C)C)cn3)CC4)c2)c(-c2cn(C)c(=O)c3[nH]ccc23)c1 [Compound I-45] | > 3000 | < 500
12 | Cn1cc(-c2cc(C(C)(C)O)ccc2Oc2ccc(CCCC3CC4(C3)CN(c3ncc(C(=O)N[C@H]5C(C)(C)[C@H](Oc6ccc(C#N)c(Cl)c6)C5(C)C)cn3)C4)cc2)c2cc[nH]c2c1=O [Compound I-268] | 500 to 1500 | < 500
13 | Cn1cc(-c2cc(C(C)(C)O)ccc2Oc2ccc(N3CC(CC4CN(c5ncc(C(=O)N[C@H]6C(C)(C)[C@H](Oc7ccc(C#N)c(Cl)c7)C6(C)C)cn5)C4)C3)cc2)c2cc[nH]c2c1=O [Compound I-280] | 1500 to 3000 | < 500
14 | CCS(=O)(=O)Nc1ccc(Oc2cccc(OCCOCCOCCOC3CCN(c4ncc(C(=O)N[C@H]5C(C)(C)[C@H](Oc6ccc(C#N)c(Cl)c6)C5(C)C)cn4)CC3)c2)c(-c2cn(C)c(=O)c3[nH]ccc23)c1 [Compound I-7] | < 500 | < 500
15 | CCS(=O)(=O)Nc1ccc(Oc2cccc(OCCOCCOCCOCCOCCN(C)c3ncc(C(=O)N[C@H]4C(C)(C)[C@H](Oc5ccc(C#N)c(Cl)c5)C4(C)C)cn3)c2)c(-c2cn(C)c(=O)c3[nH]ccc23)c1 [Compound I-3] | > 3000 | < 500
16 | Cn1cc(-c2cc(C(C)(C)O)ccc2Oc2ccc(OCC3CCN(c4ncc(C(=O)N[C@H]5C(C)(C)[C@H](Oc6ccc(C#N)c(Cl)c6)C5(C)C)cn4)CC3)cc2)c2cc[nH]c2c1=O [Compound I-202] | 500 to 1500 | < 500
17 | CN(C1CCN(c2ncc(C(=O)N[C@H]3C(C)(C)[C@H](Oc4ccc(C#N)c(Cl)c4)C3(C)C)cn2)CC1)C1CN(c2ccc(Oc3ccc(C(C)(C)O)cc3-c3cn(C)c(=O)c4[nH]ccc34)cc2)C1 [Compound I-208] | < 500 | < 500
18 | Cn1cc(-c2cc(C(C)(C)O)ccc2Oc2ccc(N3CC(CN4CC5CC4CN5c4ncc(C(=O)N[C@H]5C(C)(C)[C@H](Oc6ccc(C#N)c(Cl)c6)C5(C)C)cn4)C3)cc2)c2cc[nH]c2c1=O (some centres unmarked) [Compound I-228] | < 500 | < 500
19 | CCS(=O)(=O)Nc1ccc(Oc2cccc(OCCOC3CCN(c4ccc(C(=O)N[C@H]5C(C)(C)[C@H](Oc6ccc(C#N)c(Cl)c6)C5(C)C)cn4)CC3)c2)c(-c2cn(C)c(=O)c3[nH]ccc23)c1 [Compound I-70, N-((1r, 3r)-3-(3-chloro-4-cyanophenoxy)-2,2,4,4-tetramethylcyclobutyl)-6-(4-(2-(3-(4-(ethylsulfonamido)-2-(6-methyl-7-oxo-6,7-dihydro-1H-pyrrolo[2,3-c]pyridin-4-yl)phenoxy)phenoxy)ethoxy)piperidin-1-yl)nicotinamide] | < 500 | < 500
20 | Cn1cc(-c2cc(C(C)(C)O)ccc2Oc2ccc(OCCN3CCN(c4ncc(C(=O)N[C@H]5C(C)(C)[C@H](Oc6ccc(C#N)c(Cl)c6)C5(C)C)cn4)CC3)cc2)c2cc[nH]c2c1=O [Compound I-204] | 500 to 1500 | < 500
21 | CCS(=O)(=O)Nc1ccc(Oc2cccc(OCCOC3CCN(c4ncc(C(=O)N[C@H]5C(C)(C)[C@H](Oc6ccc(C#N)c(Cl)c6)C5(C)C)cn4)CC3)c2)c(-c2cn(C)c(=O)c3[nH]ccc23)c1 [Compound I-6] | < 500 | < 500
22 | Cc1ccc(CCCOC2CCN(c3ncc(C(=O)N[C@H]4C(C)(C)[C@H](Oc5ccc(C#N)c(Cl)c5)C4(C)C)cn3)CC2)c(C)c1Oc1ccc(C(C)(C)O)cc1-c1cn(C)c(=O)c2[nH]ccc12 [Compound I-195] | > 3000 | < 500
23 | CN(C1CN(c2ccc(Oc3ccc(C(C)(C)O)cc3-c3cn(C)c(=O)c4[nH]ccc34)cc2)C1)C1CN(c2ncc(C(=O)N[C@H]3C(C)(C)[C@H](Oc4ccc(C#N)c(Cl)c4)C3(C)C)cn2)C1 [Compound I-238] | 500 to 1500 | < 500
24 | Cn1cc(-c2cc(C(C)(C)O)ccc2Oc2ccc(N3CC(OC4CCN(c5ncc(C(=O)N[C@H]6C(C)(C)[C@H](Oc7ccc(C#N)c(Cl)c7)C6(C)C)cn5)CC4)C3)cc2)c2cc[nH]c2c1=O [Compound I-219] | < 500 | < 500
25 | CN(c1ccc(Oc2ccc(C(C)(C)O)cc2-c2cn(C)c(=O)c3[nH]ccc23)cc1)C1CCN(c2ncc(C(=O)N[C@H]3C(C)(C)[C@H](Oc4ccc(C#N)c(Cl)c4)C3(C)C)cn2)CC1 [Compound I-197] | < 500 | < 500
